Reference: a melting point compilation (Tetko et al.; mined from patent text by program, amines drawn as free bases though some values may be those of a salt)

Q: Which melting point does the source give for `Oc1ccc2c(c1)SCCc1c-2n(CCCCCN2CCCC2)c2ccccc12` here?
A: 158 °C

Q: With `CC(=O)OCC(C)(C)c1ccc(S(N)(=O)=O)cc1` as the molecule, how does the melting point read?
A: 156 to 158 °C

Q: Which melting point does the source give for `O=C(O)c1ccc(CCOCCCCCCBr)s1` here?
A: 60 to 61 °C

Q: With `O=C(CF)c1ccc(F)cc1F` as the molecule, how does the melting point read?
A: 57 to 58 °C

Q: With `CCCOC(=O)C1=C(N)NC(C)=C(C(=O)OCC)C1c1cccc([N+](=O)[O-])c1` (configuration not stated) as the molecule, how does the melting point read?
A: 168 °C

Q: Which melting point does the source give for `CCOC(=O)Cc1ccc(-c2nc(CCl)c(C)o2)cc1` here?
A: 87 to 88 °C

Q: With `CCCc1nc2c(N)nc3cc(OCCn4cccc4)ccc3c2s1` as the molecule, how does the melting point read?
A: 158 to 160 °C

Q: For `Cc1cc(Oc2cccc(C(F)(F)F)c2)nn1C(N)=O`, which melting point is on record?
A: 76 to 77 °C

Q: With `COc1ccc(Cc2ccc3nc(N)nc(N)c3c2)cc1` as the molecule, how does the melting point read?
A: 207 to 209 °C

Q: Which melting point does the source give for `N#Cc1ccc(-c2ccc(S(=O)(=O)NCc3ccncc3)cc2)cc1` here?
A: 198 to 202 °C

Q: Which melting point does the source give for `CSCc1cn(C)c2ccc(C)cc2c1=O` here?
A: 142 to 143 °C

Q: Which melting point does the source give for `COC1CCN(S(=O)(=O)c2ccc([N+](=O)[O-])cc2C(F)(F)F)CC1` here?
A: 141 to 143 °C

Q: For `CC1CCc2c(N3CCC(O)CC3)c(F)cc3c(=O)c(C(=O)O)cn1c23` (configuration not stated), which melting point is on record?
A: 244 to 247 °C

Q: For `CC(=O)N1CCCc2cc(CO)ccc21`, which melting point is on record?
A: 95 to 106 °C

Q: For `CCOC(=O)C1=C(C)NC(=S)N(C(=O)OCC)C1c1cccc(C(F)(F)F)c1` (configuration not stated), which melting point is on record?
A: 98 to 100 °C

Q: Which melting point does the source give for `COc1cc(C(C)=O)ccc1OCCN1CCN(c2n[nH]c3cc(Cl)ccc23)CC1` here?
A: 154 to 156 °C

Q: With `Cc1cc(C#Cc2cnn3c(C(F)(F)F)cc(-c4ccc(C(F)(F)F)cc4)nc23)ccn1` as the molecule, how does the melting point read?
A: 206 °C

Q: Which melting point does the source give for `Cc1cc2nn(C)c(=O)n2nc1-c1cccc([N+](=O)[O-])c1` here?
A: 250 to 253 °C

Q: With `COc1cc(C(C)C)ccc1C1(O)C(=O)c2cccc(N)c2C1=O` (configuration not stated) as the molecule, how does the melting point read?
A: 219 to 220 °C

Q: With `CCc1c(C(=O)c2cc(C)cc(C#N)c2)[nH]c(=O)[nH]c1=O` as the molecule, how does the melting point read?
A: 253 to 254 °C

Q: For `CC(C)Oc1c(C(=O)Nc2nnn[nH]2)sc2c1CN(C(=O)OC(C)(C)C)CC2`, which melting point is on record?
A: 189 to 191 °C

Q: For `COc1ccc(C(O)(Cc2ccccc2)c2ccccc2)cc1` (configuration not stated), which melting point is on record?
A: 111 to 112 °C

Q: With `COc1cccc(-c2csc(N3CCN(C(=O)Nc4onc(C)c4C)CC3)n2)c1` as the molecule, how does the melting point read?
A: 158 to 159 °C

Q: With `COC12CC(C)(c3nc(-c4cncc(Br)c4)no3)CN(C)C1Cc1cn(C)c3cccc2c13` (configuration not stated) as the molecule, how does the melting point read?
A: 185 to 189 °C

Q: For `COc1cc(Nc2nccc(-c3cncs3)n2)cc(OC)c1OC`, which melting point is on record?
A: 171 °C

Q: For `O=C(NN=C1C=CC=NC1)c1cccnc1`, which melting point is on record?
A: 213 to 216 °C

Q: With `CCC1(CC)OC(c2ccc(S(C)(=O)=O)cc2)=C(c2ccccc2)C1=O` as the molecule, how does the melting point read?
A: 139 to 140 °C

Q: For `O=C1c2ccc(N=C(c3ccccc3)N3CCCCC3)cc2C(=O)c2ccc(N=C(c3ccccc3)N3CCCCC3)cc21`, which melting point is on record?
A: 264 to 266 °C

Q: Which melting point does the source give for `COC(=O)C1=NN(c2ccc(F)cc2)C(C)(C(=O)OC)C1` (configuration not stated) here?
A: 114 to 118 °C

Q: Which melting point does the source give for `C=CCN1Cc2cncn2C(c2ccc(C#N)cc2)C1=O` (configuration not stated) here?
A: 107 to 109 °C

Q: With `Cn1cc(C2=C(c3cn(C)c4c([N+](=O)[O-])cccc34)C(=O)NC2=O)c2ccc(F)cc21` as the molecule, how does the melting point read?
A: 259 to 261 °C

Q: Which melting point does the source give for `CC(=O)c1nnc2n1-c1sc(Cl)cc1C(c1ccccc1Cl)=NC2` here?
A: 89 to 91 °C

Q: Which melting point does the source give for `Cc1ccc(C)c(OCCCC(C)(C)C(=O)Nc2cccc([N+](=O)[O-])c2)c1` here?
A: 93 to 94 °C

Q: With `COc1ccccc1C(=O)CN1c2nc(-c3ccncc3)cc(=O)n2CCC1c1ccccc1` (configuration not stated) as the molecule, how does the melting point read?
A: 142 to 144 °C

Q: Which melting point does the source give for `CC(C)CN1C2=NCCN2C(=O)C(N=O)=C1N` here?
A: 203 to 205 °C

Q: Which melting point does the source give for `C[C@@H]1CN(c2ccc(S(=O)(=O)c3ccccc3)c3ccccc23)C[C@H](C)N1` here?
A: 168 to 169 °C

Q: For `COc1cc(OC)c(-c2cc3ccccc3[nH]2)cc1C=CC(=O)c1ccc(S(N)(=O)=O)cc1`, which melting point is on record?
A: 185 to 187 °C

Q: For `COC(=O)COc1ccc(C(=O)NN(C)C(=O)OC(C)(C)C)cc1`, which melting point is on record?
A: 158 to 159 °C

Q: With `Cc1cccc2ncc(C(=O)Nc3ccccc3)c(=O)n12` as the molecule, how does the melting point read?
A: 186 to 188 °C

Q: With `CC(C)(COC(=O)c1ccccc1)c1cc(OS(C)(=O)=O)ccc1OC(=O)c1ccccc1` as the molecule, how does the melting point read?
A: 100 to 101 °C

Q: With `CCc1cccc2nc(C(=O)OC)c(C(=O)OC)c(O)c12` as the molecule, how does the melting point read?
A: 111 to 114 °C

Q: For `O=C(CNC(=O)c1ccc([N+](=O)[O-])c(F)c1)OCc1ccccc1`, which melting point is on record?
A: 118 to 120 °C

Q: With `CSc1ccc(-c2nc(SC)c(C#N)c(=O)n2-c2ccc(C(C)C)cc2)cc1` as the molecule, how does the melting point read?
A: 180 to 181 °C

Q: Which melting point does the source give for `CCc1cc(CO)nn1-c1ccc([N+](=O)[O-])cc1` here?
A: 151 to 152 °C

Q: Which melting point does the source give for `O=C(O)c1cn(CCc2cccc(Cl)c2)c2cc(C3CC3)nn2c1=O` here?
A: 230 to 235 °C

Q: With `O=C(c1ccccc1)N1CCCSC1=C[N+](=O)[O-]` as the molecule, how does the melting point read?
A: 90 to 92 °C

Q: With `CN(C(CCn1c(=O)[nH]c2ccsc2c1=O)C(=O)O)S(=O)(=O)c1ccc(Oc2ccccc2)cc1` (configuration not stated) as the molecule, how does the melting point read?
A: 218 to 219 °C

Q: For `C=C1C[C@@H]2[C@H](CC[C@]3(C)C(=O)CC[C@@H]23)[C@@]2(C)CCC(=O)C(S)=C12`, which melting point is on record?
A: 195 to 197 °C

Q: With `CC(C)(C)OC(=O)c1ncn2c1[C@@H]1CCCN1C(=O)c1c-2ccc(N)c1Br` as the molecule, how does the melting point read?
A: 245 to 246 °C

Q: With `CCCCc1ccc(NCC)c(C(=O)C(=O)OC(=O)C(=O)c2cc(CCCC)ccc2NCC)c1` as the molecule, how does the melting point read?
A: 130 to 132 °C

Q: With `COc1cc2c(cc1OC)C(C(COC(=O)Nc1ccccc1)COC(=O)Nc1ccccc1)N(Cc1ccccc1)CC2` (configuration not stated) as the molecule, how does the melting point read?
A: 185 °C

Q: Which melting point does the source give for `CC(=O)ON1C(C)(C)CC(C(N)=O)C1(C)C` (configuration not stated) here?
A: 150 to 151 °C

Q: For `N#CN=C(Nc1cccnc1)NC(NC(=O)c1ccc(Cl)cc1)C(F)(F)C(F)(F)F` (configuration not stated), which melting point is on record?
A: 177 to 178 °C

Q: With `Cc1cc2c(s1)Nc1ccccc1N=C2N1CCN(C)[C@@H](CCc2ccccc2)C1` as the molecule, how does the melting point read?
A: 87 to 91 °C

Q: With `O=C1CC(=O)C2C3C=CC(C3)C12` (configuration not stated) as the molecule, how does the melting point read?
A: 183 °C

Q: Which melting point does the source give for `Cc1sc(N)c(C(=O)c2ccccc2)c1C` here?
A: 140 to 141 °C

Q: For `CN(C)CCSc1nnc(SCN2C(=O)c3ccccc3S2(=O)=O)s1`, which melting point is on record?
A: 90.5 to 91.5 °C

Q: For `CCOC(=O)c1cn(C2CCCCC2)nc1O`, which melting point is on record?
A: 91 to 92 °C

Q: With `CC(S)=C(C#N)C(=O)Nc1ccc(C(F)(F)F)cc1` as the molecule, how does the melting point read?
A: 183 to 184 °C

Q: Which melting point does the source give for `Cc1oc(-c2ccco2)nc1CCc1ccc(CCCC2OC(=O)NC2=O)cc1` (configuration not stated) here?
A: 123 to 124 °C

Q: With `NS(=O)(=O)c1ccc(NN=C2C(=O)Nc3ccc(S(N)(=O)=O)cc32)cc1` as the molecule, how does the melting point read?
A: > 250 °C

Q: With `COC(=O)C[C@H](Cc1ccc(-c2ccccc2)cc1)NCP(=O)(OC)OC` as the molecule, how does the melting point read?
A: 67 °C

Q: For `CCOC(=O)c1cnc2ccc(OC)cc2c1Cl`, which melting point is on record?
A: 93.7 to 95.7 °C

Q: Which melting point does the source give for `CCP(=O)(O)c1cc(Oc2ccc(C(F)(F)F)cc2Cl)ccc1[N+](=O)[O-]` here?
A: 99 °C

Q: For `c1csc(-c2ccc3cc(-c4cccs4)ccc3c2)c1`, which melting point is on record?
A: 256 to 258 °C

Q: With `O=C(CN1CCC(CCc2ccccc2)CC1)Nc1ccc2c(c1)OCC(=O)N2` as the molecule, how does the melting point read?
A: 200 to 203 °C

Q: With `CCn1ncc2c(NCc3ccco3)c3ccccc3nc21` as the molecule, how does the melting point read?
A: 156 to 158 °C

Q: With `CCCCCC(=O)NS(=O)(=O)/C=C/c1cc(OCCCC)nn1Cc1ccc(Cl)cc1Cl` as the molecule, how does the melting point read?
A: 117 to 119 °C

Q: For `COc1cccc([C@H]2O[C@H](CC(=O)O)C(=O)N(CC(C)(C)CO)c3ccc(Cl)cc32)c1OC`, which melting point is on record?
A: 199 to 202 °C

Q: With `CN1CCC(c2n[nH]c3cc(F)ccc23)CC1` as the molecule, how does the melting point read?
A: 217 to 220 °C

Q: For `Cc1ncccc1C#N`, which melting point is on record?
A: 55 °C

Q: With `CC(CNCC(O)c1ccccc1)OCc1ccccc1` (configuration not stated) as the molecule, how does the melting point read?
A: 90 to 100 °C
